This passage reports EC50 and Ki results from patent US9284350B2, “IAP BIR domain binding compounds” (Pharmascience Inc., priority 2010, dated 2016).

Each structure is given as a SMILES string.

For experiment [1], the system named is Colorectal carcinoma HCT116 cells. The experiment is described as follows: Cell death assay (MTT) in combination with HGS ETR1. The class given is cell-based. The note with it: with HGS ETR1 30 ng/ml, 72 hours, read-out: HCT116+ mapatubimap EC50. On the procedure: Colorectal carcinoma HCT116 cells were cultured as monolayers in 96 well plates at a density of 2000 cells per well in McCoy's 5a medium (HyClone) supplemented with 2.2 g/L sodium bicarbonate, 10% FBS (HyClone) and 1% penicillin/streptomycin (HyClone). 24 hours later, triplicate wells were treated with HGS ETR1 (30 ng/ml) in combination with compound. Cells were incubated in the presence of compound and HGS agonistic Trail receptor antibody, ETR1 (Mapatumamab, 30 ng/ml) for 72 hours. Metabolic viability of remaining cells was assessed by MTT (thiazolyl blue tetrazolium bromide, Sigma) assay.
EC50 values (50% cell survival in the presence of compound as compared to untreated controls) were calculated from survival curves using BioAssay software (CambridgeSoft) and GraphPad Prism (Graph Pad Software Inc.). The results are provided in Table 3, below, wherein A=less than 50 nM; B=less than 250 nM; C=less than 1000 nM; and D=greater than 1000 nM.

Another experiment has as its target T1, c-IAP1 (Homo sapiens, UniProt Q13490).
T1 construct: GST (N); made in house; host or cells: E. coli DH5α
The experiment is described as follows: Fluorescence polarization-based competition assay, c-IAP1. The class given is binding. Conditions: FP assay, ki derived from IC50. On the procedure:
(§1) Binding of compounds of Formula 1 to target BIR domains was measured using a fluorescence-polarization (FP) assay. Fluorescence-polarization was evaluated using a GENios microplate reader (TECAN) Pro instrument with the excitation filter set at 485 nm and the emission filter set at 535 nm. The final amount of protein used in the assay corresponds to the amount of protein necessary to obtain 80% of the maximum FP value in a P1 or P2 fluorescent (FITC) probe saturation experiment. The compounds potency (IC50) and selectivity, was assessed in the presence of the amount of target protein established, fluorescent probe, and a 10 point serial dilution in assay buffer (50 mM Hepes, pH 7.5, 250 mcg/mL γ-globulin, 2 mM DTT, 1% DMSO) of the selected compounds.
(§2) Assays were carried out in duplicate using untreated black 96-well plates (Corning #3915) and a total volume of 100 microliters, containing 25 microliters of fluorescent probe at a final concentration of 2 nM in assay buffer, 25 microliters of diluted compound, 25 microliters of BIR protein into assay buffer and 25 microliters of assay buffer. Buffer only (blank) or probe only in buffer (G-factor) were used as controls for calibration. The plate was incubated at room temperature in the dark for one hour and FP values in millipolarization units (mP) were recorded using Genios Pro FP reader.
(§3) The measured FP values (mP) were then plotted against compound concentration, and IC50 values were calculated based on a sigmoidal dose-response (variable-slope) curve fit using GraphPad Prism version 4.02 for Windows, GraphPad Software, San Diego Calif. USA and/or CambridgeSoft BioAssay Enterprise Version 10.1. The IC50 value is the concentration of test compound at which 50% of the tracer was displaced. ki values were derived from the calculated IC50 values as described above and according to the equation described in Nikolovska-Coleska, Z. (2004) Anal Biochem 332, 261-273. The results are presented in Table 2, wherein A=less than 25 nM; B=less than 250 nM; C=less than 1000 nM; and D=greater than 1000 nM.

The target of the next experiment is T2, XIAP (Homo sapiens, UniProt P98170).
T2 construct: fused on or other part: GST tag at the N-terminus (pGEX4T vectors)
The experiment is described as follows: Fluorescence polarization-based competition assay, XIAP. It counts as binding. The note with it: FP assay, ki derived from IC50. On the procedure: as §1, §2, §3
For orientation: Fluorescence polarisation rises when a labelled molecule tumbles more slowly, as on binding a larger partner.

T1 sequence (Q13490 251-363): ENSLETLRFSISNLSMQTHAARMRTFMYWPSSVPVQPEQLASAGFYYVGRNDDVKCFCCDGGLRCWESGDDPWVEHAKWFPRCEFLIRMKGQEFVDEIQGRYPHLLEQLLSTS
T2 sequence (P98170 246-497 limits assumed): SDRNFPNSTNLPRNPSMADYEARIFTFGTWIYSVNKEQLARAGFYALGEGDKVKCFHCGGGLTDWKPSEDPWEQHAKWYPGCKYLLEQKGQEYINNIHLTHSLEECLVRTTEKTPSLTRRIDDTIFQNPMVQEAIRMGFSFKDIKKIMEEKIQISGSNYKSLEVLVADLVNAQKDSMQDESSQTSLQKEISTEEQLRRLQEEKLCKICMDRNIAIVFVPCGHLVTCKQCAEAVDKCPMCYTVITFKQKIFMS

`CN[C@@H](C)C(=O)N[C@H](C(=O)N1C[C@@H](Oc2ccc(F)cc2)C[C@H]1CN(CCc1ccc(F)cc1)C(=O)c1cnn(-c2ccc(F)cc2)n1)C(C)(C)C` [Compound 119]: in experiment [1], the EC50 is under 250 nM.

For `CN[C@@H](C)C(=O)N[C@H](C(=O)N1CCC[C@H]1CN(CCc1ccc(F)cc1)C(=O)c1cnn(-c2ccc(F)cc2)n1)C1CCCCC1` [Compound 118], in experiment [1], the EC50 is under 250 nM.

Turning to `CC[C@H](NC)C(=O)N[C@H](C(=O)N1CCC[C@H]1CN(CCc1ccccc1)C(=O)c1cn2cccnc2n1)C1CCCCC1` [Compound 1], in experiment [1], the EC50 was under 250 nM. In addition, the values for the Ki at c-IAP1 and at XIAP were under 25 nM and under 1000 nM, respectively.

Take `CN[C@@H](C)C(=O)N[C@H](C(=O)N1CCC[C@H]1CN(CCc1ccccc1F)C(=O)c1cn2cccnc2n1)C(C)(C)C` [Compound 11]: in experiment [1], the EC50 was under 250 nM. In addition, the results for the inhibition constant Ki on c-IAP1 and at XIAP were under 25 nM and under 250 nM, respectively.

Take `CN[C@@H](C)C(=O)N[C@H](C(=O)N1CCC[C@H]1CN(CCc1ccccc1)C(=O)c1cc2ccccc2n1C)C(C)(C)C` [Compound 26]: in experiment [1], the EC50 was under 1000 nM. Besides, the Ki was under 25 nM on c-IAP1 and under 250 nM on XIAP.

`CN[C@@H](C)C(=O)N[C@H](C(=O)N1C[C@@H](Oc2ccc(F)cc2)C[C@H]1CN(CCc1ccc(F)cc1)C(=O)c1cc(C)n(C)n1)C(C)(C)C` [Compound 121]: the EC50 in experiment [1] was under 50 nM.

Regarding `CN[C@@H](C)C(=O)N[C@H](C(=O)N1CCC[C@H]1CN(CCc1ccccc1)C(=O)c1cn2cccnc2n1)C1CCOCC1` [Compound 3], in experiment [1], the EC50 was under 1000 nM. Moreover, the Ki on c-IAP1 was under 25 nM; on XIAP, under 250 nM.

As to `CN[C@@H](C)C(=O)N[C@H](C(=O)N1CCC[C@H]1CN(CCc1ccccc1)C(=O)C(=O)Nc1ccccc1)C(C)(C)C` [Compound 9], in experiment [1], the EC50 was under 250 nM. Further, the Ki was under 25 nM on c-IAP1 and under 250 nM at XIAP.

With `CN[C@@H](C)C(=O)N[C@@H](COC)C(=O)N1CCC[C@H]1CN(CCc1ccc(F)cc1)C(=O)c1cn2ccccc2n1` [Compound 60], in experiment [1], the EC50 was under 1000 nM. Also, the results for the Ki at c-IAP1 and on XIAP were under 25 nM and under 1000 nM, respectively.

With `CC[C@H](N)C(=O)N[C@H](C(=O)N1CCC[C@H]1CN(CCc1ccccc1)C(=O)c1cn2ccccc2n1)C1CCCCC1` [Compound 29], the EC50 in experiment [1] is over 1000 nM. For the same molecule, the Ki is under 25 nM on c-IAP1 and under 1000 nM on XIAP.

For `CN[C@@H](C)C(=O)N[C@H](C(=O)N1CCC[C@H]1CN(CCc1ccc(F)cc1)C(=O)c1cnc2ncccn12)C(C)(C)C` [Compound 38], the EC50 in experiment [1] is under 250 nM.

As for `CN[C@@H](C)C(=O)N[C@H](C(=O)N1CCC[C@H]1CN(CCc1ccccc1)C(=O)c1cc2ccccc2[nH]1)C(C)(C)C` [Compound 27], the EC50 in experiment [1] was under 1000 nM. Moreover, the Ki was under 25 nM on c-IAP1 and under 250 nM at XIAP.

As to `CN[C@@H](C)C(=O)N[C@H](C(=O)N1CCC[C@H]1CN(CCc1ccccc1)C(=O)c1cnc2ccccn12)C(C)(C)C` [Compound 28], the EC50 in experiment [1] was under 1000 nM. The Ki was under 25 nM on c-IAP1 and under 250 nM at XIAP.

In the case of `CN[C@@H](C)C(=O)N[C@H](C(=O)N1CCC[C@H]1CN(CCc1ccc(F)cc1)C(=O)c1cc(C)n(C)n1)C(C)(C)C` [Compound 101], in experiment [1], the EC50 was under 50 nM.

Turning to `CN[C@@H](C)C(=O)N[C@H](C(=O)N1CCC[C@H]1CN(CCc1ccccc1)C(=O)c1nc2ccccc2[nH]1)C(C)(C)C` [Compound 16], the EC50 in experiment [1] was under 1000 nM. In addition, the Ki was under 25 nM on c-IAP1 and under 250 nM at XIAP.

As to `CN[C@@H](C)C(=O)N[C@H](C(=O)N1CCC[C@H]1CN(CCc1ccc(F)cc1)C(=O)c1cn(-c2c(C)cccc2C)cn1)C(C)(C)C` [Compound 54], the EC50 in experiment [1] was under 50 nM. Further, the Ki on c-IAP1 is under 25 nM; on XIAP, under 250 nM.

With `CN[C@@H](C)C(=O)N[C@H](C(=O)N1CCC[C@H]1CN(CCc1ccccc1)C(=O)c1ccc[nH]1)C(C)(C)C` [Compound 23], the EC50 in experiment [1] is under 250 nM. In addition, the Ki at c-IAP1 and at XIAP was under 25 nM in each case.

With `CN[C@@H](C)C(=O)N[C@H](C(=O)N1CCC[C@H]1CN(CCc1ccc(F)cc1)C(=O)c1cn2cc(OC)ccc2n1)C(C)(C)C` [Compound 51], the 50% effective concentration (EC50) in experiment [1] was under 250 nM. The Ki at c-IAP1 is under 25 nM; on XIAP, under 250 nM.

Regarding `CN[C@@H](C)C(=O)N[C@H](C(=O)N1CCC[C@H]1CN(CCc1ccc(F)cc1)C(=O)c1cn2cc(-c3ccccc3)ccc2n1)C(C)(C)C` [Compound 48], the 50% effective concentration (EC50) in experiment [1] was under 50 nM. Moreover, the Ki on c-IAP1 was under 25 nM; at XIAP it was under 250 nM.

Turning to `CN[C@@H](C)C(=O)N[C@H](C(=O)N1CCC[C@H]1CN(CCc1ccccc1)C(=O)c1cn2cc(C)ccc2n1)C(C)(C)C` [Compound 30], in experiment [1], the EC50 was under 250 nM. Also, the figures for the inhibition constant (Ki) on c-IAP1 and on XIAP were under 25 nM and under 250 nM, respectively.

As for `CN[C@@H](C)C(=O)N[C@H](C(=O)N1CCC[C@H]1CN(CCc1ccc(F)cc1)C(=O)c1coc(-c2ccccc2)n1)C(C)(C)C` [Compound 64], the EC50 in experiment [1] was under 250 nM. The Ki on c-IAP1 is under 25 nM; at XIAP it was under 250 nM.

For `CN[C@@H](C)C(=O)N[C@H](C(=O)N1CCC[C@H]1CN(CCc1ccccc1)C(=O)c1cn2ccc(C)cc2n1)C(C)(C)C` [Compound 31], in experiment [1], the EC50 was under 250 nM. In addition, the Ki on c-IAP1 was under 25 nM; on XIAP, under 250 nM.

As for `CN[C@@H](C)C(=O)N[C@H](C(=O)N1CCC[C@H]1CN(CCc1ccccc1)C(=O)c1cn2cccnc2n1)C1CCCC1` [Compound 33], the EC50 in experiment [1] is under 250 nM. Also, the figures for the Ki at c-IAP1 and at XIAP were under 25 nM and under 250 nM, respectively.

On to `CN[C@@H](C)C(=O)N[C@H](C(=O)N1CCC[C@H]1CN(CCc1ccccc1)C(=O)c1cn2c(n1)CCCC2)C(C)(C)C` [Compound 15], for which, in experiment [1], the EC50 is under 250 nM. The Ki on c-IAP1 was under 25 nM; on XIAP, under 250 nM.

On to `CN[C@@H](C)C(=O)N[C@H](C(=O)N1CCC[C@H]1CN(CCc1ccc(F)cc1)C(=O)c1cn2cc(O)cnc2n1)C(C)(C)C` [Compound 46], for which the EC50 in experiment [1] was under 1000 nM. Besides, the Ki on c-IAP1 is under 25 nM; on XIAP, under 250 nM.

Take `CN[C@@H](C)C(=O)N[C@H](C(=O)N1CCC[C@H]1CN(CCc1ccccc1)C(=O)c1cn2ccncc2n1)C(C)(C)C` [Compound 35]: the EC50 in experiment [1] was under 250 nM. The Ki at c-IAP1 and at XIAP was under 25 nM each time.

As for `CN[C@@H](C)C(=O)N[C@H](C(=O)N1CCC[C@H]1CN(CCc1ccccc1)C(=O)c1ncc[nH]1)C(C)(C)C` [Compound 22], the EC50 in experiment [1] was under 250 nM. Moreover, the Ki at c-IAP1 was under 25 nM; on XIAP, under 250 nM.

For `CN[C@@H](C)C(=O)N[C@H](C(=O)N1CCC[C@H]1CN(CCc1ccc(F)cc1)C(=O)c1cn2ccccc2n1)C1CCOCC1` [Compound 19], the EC50 in experiment [1] is under 50 nM. The figures for the Ki at c-IAP1 and at XIAP were under 25 nM and under 250 nM, respectively.

As to `CN[C@@H](C)C(=O)N[C@H](C(=O)N1CCC[C@H]1CN(CCc1ccccc1)C(=O)c1cc2ccccn2c1)C(C)(C)C` [Compound 8], the EC50 in experiment [1] was under 250 nM. Besides, the Ki at c-IAP1 and at XIAP was under 25 nM throughout.

For the molecule `CN[C@@H](C)C(=O)N[C@H](C(=O)N1CCC[C@H]1CN(CCc1ccccc1)C(=O)c1cn(C)c2ccccc12)C(C)(C)C` [Compound 25], the Ki is under 25 nM at c-IAP1 and under 250 nM on XIAP.

A word on the EC50: it is the concentration giving half of the maximal effect. As a reminder, the Ki is the equilibrium dissociation constant of an inhibitor or competing ligand from its target. Lower therefore signals higher affinity.
